Assay results published in patent US9533991B2, “Inhibitors of Bruton's tyrosine kinase” (PHARMACYCLICS LLC, priority 2014, dated 2017).

Tests used:
Type in all cases: biochemical
Btk [1] = molecular target: T1, Btk (Homo sapiens, UniProt Q06187); test: Inhibition of a panel of kinases: Btk; conditions: kinase panel, Table 2
Method: (§1) The degree of inhibition of a panel of kinases is determined using assays similar to the kinase assay described in Example 53.

EGFR = EGFR (Homo sapiens, UniProt P00533); test: Inhibition of a panel of kinases: EGFR; conditions: kinase panel, Table 2
Chain of EGFR (P00533 25-1210, species assumed): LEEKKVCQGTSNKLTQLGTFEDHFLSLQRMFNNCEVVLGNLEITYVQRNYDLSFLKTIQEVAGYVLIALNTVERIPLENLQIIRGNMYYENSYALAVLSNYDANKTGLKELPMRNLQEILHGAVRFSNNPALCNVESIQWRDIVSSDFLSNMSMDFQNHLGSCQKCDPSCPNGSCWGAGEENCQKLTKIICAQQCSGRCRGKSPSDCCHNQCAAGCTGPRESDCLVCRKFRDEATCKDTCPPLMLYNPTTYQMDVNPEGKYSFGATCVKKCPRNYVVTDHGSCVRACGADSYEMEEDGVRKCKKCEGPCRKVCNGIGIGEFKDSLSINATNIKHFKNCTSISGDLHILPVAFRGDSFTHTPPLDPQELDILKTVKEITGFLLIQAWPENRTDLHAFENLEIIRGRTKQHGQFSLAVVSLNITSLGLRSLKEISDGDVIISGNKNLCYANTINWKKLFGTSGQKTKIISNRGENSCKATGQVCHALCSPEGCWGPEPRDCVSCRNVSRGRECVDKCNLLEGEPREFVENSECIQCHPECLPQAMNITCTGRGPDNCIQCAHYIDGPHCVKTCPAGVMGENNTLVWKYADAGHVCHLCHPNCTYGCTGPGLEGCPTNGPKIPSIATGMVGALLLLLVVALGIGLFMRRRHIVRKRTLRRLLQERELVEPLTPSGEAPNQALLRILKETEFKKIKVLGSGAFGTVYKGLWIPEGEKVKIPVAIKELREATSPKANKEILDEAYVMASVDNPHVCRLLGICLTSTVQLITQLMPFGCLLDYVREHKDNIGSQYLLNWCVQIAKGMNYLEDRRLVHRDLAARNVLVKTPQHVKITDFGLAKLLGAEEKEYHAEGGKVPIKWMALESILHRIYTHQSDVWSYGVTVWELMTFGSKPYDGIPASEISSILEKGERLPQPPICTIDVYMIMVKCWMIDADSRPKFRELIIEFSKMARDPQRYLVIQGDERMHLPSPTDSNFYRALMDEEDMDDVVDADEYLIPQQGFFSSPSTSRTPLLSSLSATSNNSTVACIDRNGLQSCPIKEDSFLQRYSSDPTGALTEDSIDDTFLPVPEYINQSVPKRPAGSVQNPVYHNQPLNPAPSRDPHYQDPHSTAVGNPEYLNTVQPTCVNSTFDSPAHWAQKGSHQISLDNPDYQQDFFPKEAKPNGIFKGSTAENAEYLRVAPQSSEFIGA
Method: as §1

LCK = LCK (Homo sapiens, UniProt P06239); test: Inhibition of a panel of kinases: LCK; conditions: kinase panel, Table 2
Chain of LCK (P06239 whole entry, species assumed): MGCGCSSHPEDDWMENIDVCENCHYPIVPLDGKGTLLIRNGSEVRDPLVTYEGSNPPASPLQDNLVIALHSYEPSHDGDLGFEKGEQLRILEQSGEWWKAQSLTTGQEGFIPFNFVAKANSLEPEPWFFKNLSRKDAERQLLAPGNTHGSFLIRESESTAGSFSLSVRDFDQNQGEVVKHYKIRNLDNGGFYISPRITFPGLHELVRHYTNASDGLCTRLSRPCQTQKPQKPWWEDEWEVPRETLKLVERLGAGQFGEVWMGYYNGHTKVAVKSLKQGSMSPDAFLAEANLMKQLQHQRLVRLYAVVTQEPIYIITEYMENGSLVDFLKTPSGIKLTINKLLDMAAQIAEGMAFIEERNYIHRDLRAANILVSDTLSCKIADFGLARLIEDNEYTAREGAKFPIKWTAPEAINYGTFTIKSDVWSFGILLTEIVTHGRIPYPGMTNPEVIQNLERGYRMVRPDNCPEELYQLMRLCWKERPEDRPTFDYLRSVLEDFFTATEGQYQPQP
Method: as §1

JAK3 = molecular target: T2, JAK3 (Homo sapiens, UniProt P52333); test: Inhibition of a panel of kinases: JAK3; conditions: kinase panel, Table 2
T2 sequence (P52333 1-1124): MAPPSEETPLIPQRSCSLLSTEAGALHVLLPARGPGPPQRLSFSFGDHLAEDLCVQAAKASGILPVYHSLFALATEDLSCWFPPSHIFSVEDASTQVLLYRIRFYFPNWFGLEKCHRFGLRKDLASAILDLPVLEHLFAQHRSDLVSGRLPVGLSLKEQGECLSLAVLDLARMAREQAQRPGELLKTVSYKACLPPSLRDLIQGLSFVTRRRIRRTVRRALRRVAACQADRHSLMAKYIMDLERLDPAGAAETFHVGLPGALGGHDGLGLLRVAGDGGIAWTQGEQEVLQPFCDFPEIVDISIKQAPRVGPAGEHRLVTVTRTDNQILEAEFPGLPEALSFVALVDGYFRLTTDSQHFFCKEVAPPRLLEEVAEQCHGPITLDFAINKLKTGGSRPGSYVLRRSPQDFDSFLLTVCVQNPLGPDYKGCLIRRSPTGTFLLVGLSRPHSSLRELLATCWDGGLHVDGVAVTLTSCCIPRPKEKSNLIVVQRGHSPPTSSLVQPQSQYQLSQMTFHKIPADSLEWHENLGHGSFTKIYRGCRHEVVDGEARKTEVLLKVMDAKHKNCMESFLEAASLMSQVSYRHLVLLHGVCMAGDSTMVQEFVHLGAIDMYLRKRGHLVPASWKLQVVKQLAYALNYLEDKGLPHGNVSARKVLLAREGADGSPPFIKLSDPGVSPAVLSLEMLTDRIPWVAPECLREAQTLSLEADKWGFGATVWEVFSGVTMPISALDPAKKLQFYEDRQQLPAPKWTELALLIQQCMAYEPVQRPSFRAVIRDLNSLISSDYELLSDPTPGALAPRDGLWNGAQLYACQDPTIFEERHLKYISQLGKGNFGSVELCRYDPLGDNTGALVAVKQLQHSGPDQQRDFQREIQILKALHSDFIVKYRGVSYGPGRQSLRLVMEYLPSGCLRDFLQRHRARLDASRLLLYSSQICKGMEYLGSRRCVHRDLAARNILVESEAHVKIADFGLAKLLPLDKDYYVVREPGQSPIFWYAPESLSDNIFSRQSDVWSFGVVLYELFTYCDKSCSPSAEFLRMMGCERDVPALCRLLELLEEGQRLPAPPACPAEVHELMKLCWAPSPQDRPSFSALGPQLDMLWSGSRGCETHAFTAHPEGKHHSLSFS
Method: as §1

Btk [2] = molecular target: T1, Btk; test: Btk in vitro inhibitory activity (Method A, B or C); parameters: purified from insect cells as a full-length construct containing a N-terminal 6×-His tag; His6 (N); made in house; host or cells: insect cells (baculovirus, Sf21); conditions: one of the methods of Example 53a, 53b, 53c
Method: Btk kinase activity is determined using a time-resolved fluorescence resonance energy transfer (TR-FRET) methodology. Measurements are performed in a reaction volume of 50 μL using 96-well assay plates. Kinase enzyme, inhibitor, ATP (at the Km for the kinase), and 1 μM peptide substrate (Biotin-AVLESEEELYSSARQ-NH2 (SEQ ID NO: 1)) are incubated in a reaction buffer composed of 20 mM Tris, 50 mM NaCl, MgCl2 (5-25 mM depending on the kinase), MnCl2 (0-10 mM), 1 mM DTT, 0.1 mM EDTA, 0.01% bovine serum albumin, 0.005% Tween-20, and 10% DMSO at pH 7.4 for one hour. The reaction is quenched by the addition of 1.2 equivalents of EDTA (relative to divalent cation) in 25 μL of 1× Lance buffer (Perkin-Elmer). Streptavidin-APC (Perkin-Elmer) and Eu-labeled p-Tyr100 antibody (Perkin-Elmer) in 1× Lance buffer are added in a 25 μL volume to give final concentrations of 100 nM and 2.5 nM, respectively, and the mixture is allowed to incubate for one hour. The TR-FRET signal is measured on a multimode plate reader with an excitation wavelength (λEx) of 330 nm and detection wavelengths (λEm) of 615 and 665 nm. Activity is determined by the ratio of the fluorescence at 665 nm to that at 615 nm. For each compound, enzyme activity is measured at various concentrations of compound. Negative control reactions are performed in the absence of inhibitor in replicates of six, and two no-enzyme controls are used to determine baseline fluorescence levels. Inhibition constants, Ki(app), ware obtained using the program BatchKi (Kuzmic et al. (2000), Anal. Biochem. 286:45-50). IC50s are obtained according to the equation: IC50={Ki(app)/1+[ATP]/Km^ATP)}+[E]total/2;
For all kinases, [ATP]=Km^ATP, [Btk]total=0.5 nM and [Lck]total=6 nM.
Kinase activity is measured in vitro using electrophoretic mobility shift assay. The kinase reactions are assembled in a total volume of 25 μL in 384 well plates. The reactions comprise: BTK enzyme (1 nM, N-terminal His6-tagged, recombinant, full-length, human BTK purified from baculovirus Sf21 insect cell system), inhibitor, ATP (16 μM, the apparent Km for the kinase), fluorescently labeled peptide substrate (1 μM, FAM-GEEPLYWSFPAKKK-NH2 (SEQ ID NO: 2)) in a reaction buffer composed of 100 mM HEPES, pH7.5, 5 mM MgCl2 1 mM DTT, 0.1% bovine serum albumin, 0.01% Triton X-100, and 1% DMSO. The reaction is incubated for one hour and is quenched by the addition of 45 μL of termination buffer (100 mM HEPES, pH7.5, 0.01% Triton X-100, 30 mM EDTA). The terminated reactions are analyzed using 12 channel LabChip® 3000 microfluidic detection instrument (Caliper Life Sciences). The enzymatic phosphorylation of the peptide results in a change in net charge, enabling electrophoretic separation of product from substrate peptide. As substrate and product peptides are separated, two peaks of fluorescence are observed. Change in the relative fluorescence intensity of the substrate and product peaks is the parameter measured, reflecting enzyme activity. In the presence of an inhibitor, the ratio between product and substrate is altered: the signal of the product decreases, while the signal of the substrate increases.
Activity in each sample is determined as the product to sum ratio (PSR):P/(S+P), where P is the peak height of the product peptide and S is the peak height of the substrate peptide. For each compound, enzyme activity is measured at various concentrations (12 concentrations of compound spaced by 3× dilution intervals). Negative control samples (0%−inhibition in the absence of inhibitor) and positive control samples (100%−inhibition, in the presence of 20 mM EDTA) are assembled in replicates of four and are used to calculate %−inhibition values for each inhibitor at each concentration. Percent inhibition (Pinh) is determined using following equation: […]

T1 sequence (Q06187 whole entry): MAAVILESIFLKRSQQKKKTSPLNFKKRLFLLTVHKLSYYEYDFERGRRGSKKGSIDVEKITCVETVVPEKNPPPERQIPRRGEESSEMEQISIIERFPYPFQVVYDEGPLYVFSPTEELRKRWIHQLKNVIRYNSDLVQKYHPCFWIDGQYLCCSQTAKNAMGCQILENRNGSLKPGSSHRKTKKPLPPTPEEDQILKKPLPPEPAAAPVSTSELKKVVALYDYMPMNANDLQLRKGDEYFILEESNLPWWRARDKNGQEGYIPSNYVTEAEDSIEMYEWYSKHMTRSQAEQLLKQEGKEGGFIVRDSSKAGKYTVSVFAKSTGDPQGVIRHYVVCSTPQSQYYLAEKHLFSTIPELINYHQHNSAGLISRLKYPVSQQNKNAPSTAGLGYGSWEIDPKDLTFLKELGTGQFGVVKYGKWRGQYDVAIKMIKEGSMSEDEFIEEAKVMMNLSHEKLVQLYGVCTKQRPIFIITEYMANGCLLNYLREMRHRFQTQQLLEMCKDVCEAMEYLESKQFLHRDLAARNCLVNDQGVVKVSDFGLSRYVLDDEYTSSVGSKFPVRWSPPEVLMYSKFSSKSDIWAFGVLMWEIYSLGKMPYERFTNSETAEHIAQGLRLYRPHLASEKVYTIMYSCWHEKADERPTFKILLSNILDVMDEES

SMILES	IC50 (Btk [1])	IC50 (EGFR)	IC50 (LCK)	IC50 (JAK3)	IC50 (Btk [2])
CC#CC(=O)N1CC[C@@H](n2nc(-c3ccc(C(=O)Nc4cc(C)ccn4)cc3)c3c(N)ncnc32)C1 [Compound ID 2, (R)-4-(4-amino-1-(1-but-2-ynoylpyrrolidin-3-yl)-1H-pyrazolo[3,4-d]pyrimidin-3-yl)-N-(4-methylpyridin-2-yl)benzamide]	≤ 10 nM	> 1000 nM	100 to 1000 nM	> 1000 nM	≤ 10 nM
CC#CC(=O)N1CC[C@@H](n2nc(-c3ccc(C(=O)Nc4cc(C(F)(F)F)ccn4)cc3)c3c(N)ncnc32)C1 [Compound ID 1, (R)-4-(4-amino-1-(1-but-2-ynoylpyrrolidin-3-yl)-1H-pyrazolo[3,4-d]pyrimidin-3-yl)-N-(4-(trifluoromethyl)pyridin-2-yl)benzamide]	≤ 10 nM	100 to 1000 nM	100 to 1000 nM	> 1000 nM	≤ 10 nM
CC#CC(=O)N1CC[C@@H](n2nc(-c3ccc(C(=O)Nc4cc(C#N)ccn4)cc3)c3c(N)ncnc32)C1 [Compound ID 5, (R)-4-(4-amino-1-(1-but-2-ynoylpyrrolidin-3-yl)-1H-pyrazolo[3,4-d]pyrimidin-3-yl)-N-(4-cyanopyridin-2-yl)benzamide]	≤ 10 nM	> 1000 nM	100 to 1000 nM	> 1000 nM	≤ 10 nM
Cc1ccnc(NC(=O)c2ccc(-c3nn([C@@H]4CCN(C(=O)C#CC5CC5)C4)c4ncnc(N)c34)cc2)c1 [Compound ID 8, (R)-4-(4-amino-1-(1-(3-cyclopropylpropioloyl)pyrrolidin-3-yl)-1H-pyrazolo[3,4-d]pyrimidin-3-yl)-N-(4-methylpyridin-2-yl)benzamide]	≤ 10 nM	100 to 1000 nM	> 1000 nM	> 1000 nM	≤ 10 nM
CCC#CC(=O)N1CC[C@@H](n2nc(-c3ccc(C(=O)Nc4cc(C)ccn4)cc3)c3c(N)ncnc32)C1 [Compound ID 7, (R)-4-(4-amino-1-(1-pent-2-ynoylpyrrolidin-3-yl)-1H-pyrazolo[3,4-d]pyrimidin-3-yl)-N-(4-methylpyridin-2-yl)benzamide]	≤ 10 nM	> 1000 nM	> 1000 nM	> 1000 nM	≤ 10 nM
CC#CC(=O)N1CC[C@@H](n2nc(-c3ccc(C(=O)Nc4ccccn4)cc3)c3c(N)ncnc32)C1 [Compound ID 3, (R)-4-(4-amino-1-(1-but-2-ynoylpyrrolidin-3-yl)-1H-pyrazolo[3,4-d]pyrimidin-3-yl)-N-(pyridin-2-yl)benzamide]	≤ 10 nM	100 to 1000 nM	10 to 100 nM	> 1000 nM	≤ 10 nM
CC#CC(=O)N1CC[C@@H](n2nc(-c3ccc(C(=O)Nc4cc(C(C)C)ccn4)cc3)c3c(N)ncnc32)C1 [Compound ID 4, (R)-4-(4-amino-1-(1-but-2-ynoylpyrrolidin-3-yl)-1H-pyrazolo[3,4-d]pyrimidin-3-yl)-N-(4-isopropylpyridin-2-yl)benzamide]	≤ 10 nM	> 1000 nM	100 to 1000 nM	> 1000 nM	≤ 10 nM
CC#CC(=O)N1CCC[C@@H](n2nc(-c3ccc(C(=O)Nc4cc(C(C)C)ccn4)cc3)c3c(N)ncnc32)C1 [Compound ID 6, (R)-4-(4-amino-1-(1-but-2-ynoylpiperidin-3-yl)-1H-pyrazolo[3,4-d]pyrimidin-3-yl)-N-(4-isopropylpyridin-2-yl)benzamide]	≤ 10 nM	> 1000 nM	100 to 1000 nM	> 1000 nM	≤ 10 nM
C=CC(=O)N1CC[C@@H](n2nc(-c3ccc(C(=O)Nc4ccccn4)cc3)c3c(N)ncnc32)C1 [Compound ID 22, (R)-4-(1-(1-acryloylpyrrolidin-3-yl)-4-amino-1H-pyrazolo[3,4-d]pyrimidin-3-yl)-N-(pyridin-2-yl)benzamide]	≤ 10 nM	≤ 10 nM	100 to 1000 nM	–	≤ 10 nM
CC#CC(=O)N1CCC[C@@H](n2nc(-c3ccc(C(=O)Nc4nccs4)cc3)c3c(N)ncnc32)C1 [Compound ID 16, (R)-4-(4-amino-1-(1-but-2-ynoylpiperidin-3-yl)-1H-pyrazolo[3,4-d]pyrimidin-3-yl)-N-(thiazol-2-yl)benzamide]	≤ 10 nM	10 to 100 nM	10 to 100 nM	–	≤ 10 nM
CC#CC(=O)N1CC[C@@H](n2nc(-c3ccc(C(=O)Nc4nccs4)cc3)c3c(N)ncnc32)C1 [Compound ID 15, (R)-4-(4-amino-1-(1-but-2-ynoylpyrrolidin-3-yl)-1H-pyrazolo[3,4-d]pyrimidin-3-yl)-N-(thiazol-2-yl)benzamide]	≤ 10 nM	≤ 10 nM	100 to 1000 nM	–	≤ 10 nM
